In patent US8475775B1, “Retinoids and use thereof” (The UAB Research Foundation, priority 2012, dated 2013):

Legend:
Type in all cases: in vivo
[1] = test system: hairless SKH1-E mice; experiment: Histopathology of dorsal skin: hyperkeratosis/serocellular crust, utriculus formation, sebaceous gland hyperplasia; settings: of 5 mice per group
Description: (§1) Female SKH1-E hairless mice (Crl:SKH1-Hrhr) weighing 22±2 g were used. The animals were divided into groups of 5 each. Once a day, 100 μl of vehicle, tazarotene, and test articles were applied on the back with a micropipette and smeared evenly with gloved finger on approximately 8 cm2 (2×4 cm) of the dorsal skin; 20 μl was applied to the right ear. The tested animals were treated for two consecutive weeks. Body weight was monitored twice a week.
(§2) Epidermal hyperplasia on the dorsal skin was used as a marker of retinoid activity. For histological evaluation, mice were sacrificed on day 15. The dorsal skin was dissected and stretched to the natural size on the filter. Punch biopsies (ED 8 mm) were obtained, fixed in 10% buffered formalin, and embedded in paraffin. Five micro thick sections were cut, stained with H&E, and a representative section of each biopsy was selected for histological evaluation.
(§3) For histological evaluation, the dorsal skin was dissected and stretched to the natural size on the filter. Punch biopsies (ED 8 mm) were obtained, fixed in 10% buffered formalin, and embedded in paraffin. Five micro thick sections were cut, stained with H&E, and a representative section of each biopsy was selected for histological evaluation. Right ear was harvested on day 15 for measurements of myeloperoxidase activity by mouse MPO ELISA kit, a measure of neutrophil infiltrates.

[2] = test system: hairless SKH1-E mice; experiment: Epidermal hyperplasia on dorsal skin (marker of retinoid activity), 14-day topical application; settings: for epidermal hyperplasia grading, average: dorsal skin, scale of 0=none to 5=marked
Description: (§4) UAB30, 4Me-UAB30 and UAB111 at 0.1% and 0.3%, tazarotene at 0.1% and vehicle were applied topically on approximately 8 cm2 (2×4 cm) of the dorsal skin (100 μL) and on the right ear (20 μL).
(§5) The test compounds were UAB30, 4Me-UAB30 and UAB111. Tazarotene (0.1% cream) was purchased by Ricerca Taiwan Ltd. The three compounds at 0.1% and 0.3%, Tazarotene (0.1% cream) and vehicle (70% ethanol/30% propylene glycol) were each administered topically on the back (100 μL) and on the right ear (20 μL) once daily for two weeks.
as §1, §2, §3

[3] = test system: hairless SKH1-E mice; experiment: Ear myeloperoxidase (MPO) by mouse MPO ELISA kit, measure of neutrophil infiltrates; settings: harvested day 15
Description: as §4, §5, §1, §3

[4] = test system: hairless SKH1-E mice; experiment: Skin irritation on dorsal skin (erythema, desquamation, lesions/abrasion), visual score; settings: for Mean skin irritation score: scale of 0-4
Description: as §4, §5, §1
Erythema, desquamation (skin flaking), and skin lesions/abrasion on dorsal skin were assessed visually in individual animals at the end of a 2-week treatment and scored on a scale of 0 to 4+, with 4+being maximal. • 0: Normal • 1+: Mild erythema • 2+: Moderate erythema • 3+: Severe erythema/Desquamation • 4+: Lesions/abrasion.

[5] = 0.1% topical once daily for 14 days
[6] = 0.1% topical 20 μL on right ear for 14 days

SMILES	Hyperkeratosis and/or serocellular crust, number of mice affected ([1]; 0.1% topical for 14 days)	Hyperkeratosis and/or serocellular crust, number of mice affected ([1]; 0.3% topical for 14 days)	epidermal hyperplasia grading, average [2, 5]	epidermal hyperplasia grading, average ([2]; 0.3% topical once daily for 14 days)	incidence of epidermal hyperplasia compared to 0.1% Tazarotene ([2]; 14-day topical, histopathology, concentration not specified (0.1% and 0.3% groups))	ear Myeloperoxidase (MPO), marker of neutrophil infiltration [3, 6]	ear Myeloperoxidase (MPO), marker of neutrophil infiltration ([3]; 0.3% topical 20 μL on right ear for 14 days)	skin irritation, observation in words ([4]; 0.1% topical for 14 days, groups of 5)	Mean skin irritation score ([4]; 0.3% topical for 14 days)	Mean skin irritation score ([4]; 0.1% topical for 14 days)
CC(=C/C=C/C(C)=C/C(=O)O)/C=C1\CCCc2ccccc21 [UAB30, (2E,4E,6E,8E)-8-(3′,4′-Dihydro-1′(2′H)-naphthalen-1′-ylidene)3,7-dimethyl-2,4,6-octatrienoic acid]	1	not reported	1.8	2	comparable incidence	no effect	no effect	did not cause any irritation	1	–
CCOC(=O)c1ccc(C#Cc2ccc3c(c2)C(C)(C)CCS3)nc1 [Tazarotene, reference compound]	–	–	2	–	–	marked increase	–	–	–	3
